Source: patent US20220322656A1, “PRESERVATION OF ORGANS FOR TRANSPLANT AND NON-TRANSPLANT SURGERIES” (The Regents of the University of Michigan, priority 2019, published 2022)
“Also recorded” adds a separate entry of the source.

Assays:
murine donor hearts [1] = assay: Hemodynamics (max dp/dt, min dp/dt) of murine donor hearts after cold storage and ex-vivo reperfusion
murine donor hearts [2] = assay: as above; remark: listed apart in the source
Description: FIG. 5A-C. […] The max dp/dt (A) and min dp/dt (B) were calculated by averaging the max/min dp/dt in 20 minutes stable period after different cold storage periods followed by perfusion. The max dp/dt or −min dp/dt of hearts were normalized to percentage of time 0. **p<0.01. (C) VPA suppress the Ill and Myd88 protein level induced by cold storage.
FIG. 9A-C. […] Following spironolactone treatment, much improved (A) max dp/dt and (B) min dp/dt after prolonged storage after 8 hours and 12 hours was observed compared to HTK alone. N=4. **p<0.01, ***p<0.001 (C) Spironolactone suppress the Il1 and Myd88 protein level induced by cold storage.
(§1) Experiments were conducted during development of embodiments herein to examine the effect of VPA on donor heart function with prolonged cold storage of donor heart. To address this, murine donor hearts were perfused with 7-8 mL HTK solution alone or HTK with 20 mM VPA and then stored the heart for 0, 4, and 8 hours.
Murine donor hearts were isolated and preserved in HTK solution for 0 h, 4 h and 8 h. The cardiac hemodynamics were then examined in an ex-vivo perfusion system. […] This was accompanied by increasing apoptotic cell death by TUNEL staining (FIG. 6C). Occurrence of cell death processes such as apoptosis with increasing storage duration is corroborated by Increased expression of cleaved poly (ADP-ribose) polymerase (PARP), a marker of cell death (FIG. 6D).
(§2) Experiments were conducted during development of embodiments herein to determine whether pharmacological inhibition of MR signaling improves the heart function after prolonged cold storage period. To address this, murine donor hearts were perfused with 7-8 mL HTK solution alone or HTK with 25 μM spironolactone and then stored the heart for 0, 8 and 12 hours.

Il1 = Il1 protein level in donor heart after cold storage (western blot); parameters: species or system murine
Description: as §1, §2

Myd88 = Myd88 protein level in donor heart after cold storage (western blot); parameters: species or system murine
Description: as §1, §2

pig hearts = assay: Ex-vivo isolated pig heart perfusion after 6 hours of ice storage in HTK with or without VPA; conditions: 6 grams VPA in 2 liters HTK, 6 hours on ice
Description: FIG. 1. Coronary vascular resistance after two hours of ex-vivo pig heart perfusion. […] 6 grams of VPA was dissolved in 2 liters of heart preservation solution (histidine-tryptophan-ketoglutarate solution, HTK) and then infused this through the aortic root of freshly sacrificed pig hearts (n=3). For the control group (n=3) only HTK solution was infused. HTK solution is one of the standard donor heart preservation solutions used clinically for heart transplantation. The pig heart was then stored in ice after mechanical arrest with HTK solution as per standard transplant protocol for a total of 6 hours. After 6 hours, the hearts were retrieved and perfused with pig blood in an ex-vivo isolated heart perfusion model. The hearts were then examined for cardiac performance.

[3] = test system: donor hearts from C57BL/6J mice; assay: Reanimation of murine donor hearts on ex-vivo Langendorff apparatus after cold storage; conditions: up to 5 hours of cold storage, vs HTK solution
Description: From murine heart experiments, donor hearts from C57BL/6J mice were preserved with either HTK solution or VPA+HTK solution and then stored in ice as per clinical protocols. The cold storage time was varied from 0 hour to 9 hours before reperfusing on an ex-vivo Langendorff apparatus.

human donor hearts = assay: RNA-Seq gene set enrichment analysis of human donor hearts during cold (4° C.) storage
Description: For treatment of human donor hearts, 6 grams of VPA was dissolved in 2 liters of HTK preservation solution and also used 2 liters of HTK solution as control. The solutions were then infused this through the aortic root of human donor hearts (n=3). RNA-Seq was performed to study the transcriptomic effect of VPA on the human heart during cold (4° C.) storage. Total RNA was isolated from the heart tissue stored at 0 h, 4 h and 8 h time points. Gene set enrichment analysis was then performed at different time points with or without VPA treatment.

[4] = canrenone vs HTK alone, after 8 hours of preservation
[5] = canrenone vs HTK alone, prolonged storage after 4 hours and 8 hours
[6] = Alda-1 vs HTK alone, after 8 h of cold storage
[7] = HTK with 25 μM spironolactone vs HTK alone, after 8 h and 12 h of cold storage
[8] = HTK with 25 μM spironolactone vs HTK alone, after 8 h and 12 h of cold storage, listed as spironolactone
[9] = spironolactone, western blot, listed as spironolactone
[10] = HTK with 20 mM VPA vs HTK alone, after 4 h and 8 h of cold storage

With `C[C@]12CCC(=O)C=C1C=C[C@@H]1[C@@H]2CC[C@@]2(C)[C@H]1CC[C@@]21CCC(=O)O1` [Canrenone, canrenone] the “max dp/dt (donor heart contraction)” value (murine donor hearts [1]; [4]) was “significantly improves”, the “min dp/dt (donor heart relaxation)” value (murine donor hearts [1]; [4]) was “significantly improves” and the max dp/dt (murine donor hearts [1]; [5]) was “much improved”. The min dp/dt (murine donor hearts [1]; [5]) was “much improved”.

With `O=C(NCc1ccc2c(c1)OCO2)c1c(Cl)cccc1Cl` [Alda-1, N-(1,3-benzodioxo1-5-ylmethyl)-2,6-dichlorobenzamide] the “max dp/dt (donor heart contractility)” value (murine donor hearts [1]; [6]) was “dramatically improves; also recorded: improved” and the “min dp/dt (donor heart relaxation)” value (murine donor hearts [1]; [6]) was “dramatically improves; also recorded: improved”.

With `CC(=O)S[C@@H]1CC2=CC(=O)CC[C@]2(C)[C@H]2CC[C@@]3(C)[C@@H](CC[C@@]34CCC(=O)O4)[C@H]12` [Spironolactone, spironolactone] the “max dp/dt (donor heart contractility)” value (murine donor hearts [2]; [7]) was “much improved”, the “min dp/dt (donor heart relaxation)” value (murine donor hearts [2]; [7]) was “much improved” and the “max dp/dt (donor heart contractility)” value (murine donor hearts [2]; [8]) was “dramatically improved”. The “min dp/dt (donor heart relaxation)” value (murine donor hearts [2]; [8]) was “dramatically improved”, the Il1 protein level (Il1; spironolactone, western blot) was “suppress” and the Il1 protein level (Il1; [9]) was “significantly reduced”. For the same compound, the Myd88 protein level (Myd88; spironolactone, western blot) was “suppress” and the Myd88 protein level (Myd88; [9]) was “significantly reduced”.

With `CCCC(CCC)C(=O)O` [VPA, Valproic acid] the “fibrillatory arrest during ex-vivo perfusion” value (pig hearts; pig hearts (n=3), control 2 out of 3) was “None”, the “Coronary vascular resistance / coronary vascular tone” value (pig hearts; pig hearts, after two hours of ex-vivo perfusion, vs HTK control) was “improved; also recorded: trend toward better maintenance” and the cardiac reanimation [3] was “successful and comparable for both groups”. For the same compound, the “NES, Inflammatory response” value (human donor hearts; LV, VPA vs HTK Only) was −1.47, the “NES, Interferon gamma response” value (human donor hearts; LV, VPA vs HTK Only) was −1.65 and the “NES, TNFa signaling via NFkB” value (human donor hearts; LV, VPA vs HTK Only) was −1.68. The “accumulation of genes related to inflammatory response” value (human donor hearts; LV, during cold storage) was “significantly reduced”, the “NES, Inflammatory response” value (human donor hearts; RV, VPA vs HTK Only) was −1.32 and the “NES, P53 pathway” value (human donor hearts; RV, VPA vs HTK Only) was −1.25. For the same compound, the “NES, TNFa signaling via NFkB” value (human donor hearts; RV, VPA vs HTK Only) was −1.96, the “activation of p53 proapoptotic pathway” value (human donor hearts; RV, during cold storage) was “reduced the activation” and the “expression of inflammatory response genes” value (human donor hearts; RV, during cold storage) was “reduced expression”. The “max dp/dt (donor heart contractility)” value (murine donor hearts [2]; [10]) was “improves donor heart function; also recorded: dramatically improved”, the “min dp/dt (donor heart relaxation)” value (murine donor hearts [2]; [10]) was “improves donor heart function; also recorded: dramatically improved” and the Il1 protein level (Il1; HTK with 20 mM VPA) was “suppress; also recorded: reduced protein level”. For the same compound, the Myd88 protein level (Myd88; HTK with 20 mM VPA) was “suppress; also recorded: reduced protein level”.
